One experiment has as its system DLD-1 BRCA2(−/−). Description: Cell growth inhibition assay (CellTiter-Glo cell viability, 7 days). The following applies: Homo sapiens, 168 h, DLD-1 BRCA2(-/-) cells. In kind it is cell-based.
The test system of experiment [1] is MDA-MB-436 (mutated BRCA1) cell lines. The description is as above. Type of experiment: cell-based. The following applies: Homo sapiens, 168 h, MDA-MB-436 cells.

On to `[2H]C([2H])([2H])NC(=O)c1ccc(N2CCN(Cc3cnc4cc(CC)c(=O)[nH]c4c3)[C@H]3C[C@H]32)cn1` (racemic) [Example 90], for which the EC50 came out at 6.4 nM in the experiment with DLD-1 BRCA2(−/−) and 4.3 nM in experiment [1].
Turning to `CCc1cc2ncc(CN3CCN(c4ccc(NC(=O)[C@H]5CCO5)nc4)CC3)cc2[nH]c1=O` (racemic) [Example 103], the figures for the EC50 (with DLD-1 BRCA2(−/−); in experiment [1]) were 6.6 nM and 5.2 nM, respectively.
On to `CCc1cc2ncc([C@@H](C)N3CCN(c4ccc(C(=O)NC)nc4)CC3)cc2[nH]c1=O` (single isomer, unassigned) [Example 20], for which the EC50 with DLD-1 BRCA2(−/−) was found to be 4.1 nM.
For the molecule `CCc1cc2ncc([C@H](C)N3CCN(c4ccc(C(=O)NC)nc4)CC3)cc2[nH]c1=O` (single isomer, unassigned) [Example 21], the EC50 in the experiment on DLD-1 BRCA2(−/−) worked out at 1.7 nM; in experiment [1] it was 0.9 nM.
For `CCc1cc2ncc(CN3CCN(c4ccc(C(=O)N[C@H]5CCCOC5)nc4)CC3)cc2[nH]c1=O` (single isomer, unassigned) [Example 53], the results for the EC50 (with DLD-1 BRCA2(−/−); in experiment [1]) were 2.4 nM and 0.92 nM, respectively.
The corresponding values for `CCc1cc2ncc(CN3CCN(c4ccc(C(=O)N[C@@H]5CCCOC5)nc4)CC3)cc2[nH]c1=O` (single isomer, unassigned) [Example 54] are 2.8 nM and 1 nM.
`CCc1cc2ncc(CN3CCN(c4cnc(C(=O)NC)c(F)c4)[C@H]4C[C@H]43)cc2[nH]c1=O` (single isomer, unassigned) [Example 69]: the values for the EC50 (in the experiment on DLD-1 BRCA2(−/−); in experiment [1]) were 7.3 nM and 4.4 nM, respectively.
Consider `CCc1cc2ncc(CN3CCN(c4ccc(C(=O)NC)nc4C#N)[C@H]4C[C@H]43)cc2[nH]c1=O` (single isomer, unassigned) [Example 76], for which the EC50 in the experiment with DLD-1 BRCA2(−/−) was found to be 1.6 nM; in experiment [1], 0.98 nM.
The corresponding values for `CNC(=O)c1ccc(N2CCN(Cc3cnc4c(c3)[nH]c(=O)c3ccoc34)[C@@H]3C[C@@H]32)cn1` (single isomer, unassigned) [Example 85] are 14 nM and 13 nM.
The corresponding values for `CCc1cc2ncc(CN3CCN(c4ccc(C(=O)NC5COC5)nc4)[C@@H]4C[C@@H]43)cc2[nH]c1=O` (single isomer, unassigned) [Example 88] are 4.2 nM and 3.8 nM.
As to `[2H]C([2H])([2H])NC(=O)c1ccc(N2CCN(Cc3cnc4cc(CC)c(=O)[nH]c4c3)[C@@H]3C[C@@H]32)cn1` (single isomer, unassigned) [Example 96], the EC50 was 2.9 nM in the experiment with DLD-1 BRCA2(−/−) and 1.7 nM in experiment [1].
`CNC(=O)c1ccc(N2CCN(Cc3cnc4cc(C)c(=O)[nH]c4c3)[C@H]3C[C@H]32)c(C#N)n1` (single isomer, unassigned) [Example 98]: the EC50 in the experiment on DLD-1 BRCA2(−/−) was determined as 2 nM; in experiment [1], 1.2 nM.
In the case of `CNC(=O)c1ccc(N2CCN(Cc3cnc4cc(C)c(=O)[nH]c4c3)[C@H]3C[C@H]32)cn1` (single isomer, unassigned) [Example 99], the concentration giving a half-maximal response (EC50) is 16 nM in the experiment with DLD-1 BRCA2(−/−) and 11 nM in experiment [1].
In the case of `[2H]C([2H])([2H])NC(=O)c1ccc(N2CCN(Cc3cnc4cc(C5CC5)c(=O)[nH]c4c3)[C@H]3C[C@H]32)cn1` (single isomer, unassigned) [Example 107], the EC50 in the experiment with DLD-1 BRCA2(−/−) came out at 9.1 nM; in experiment [1] it was 2.5 nM.
In the case of `Cc1cc2ncc(CN3CCN(c4ccc(C(=O)NC5CC5)nc4)[C@@H]4C[C@@H]43)cc2[nH]c1=O` (single isomer, unassigned) [Example 109], the EC50 in the experiment with DLD-1 BRCA2(−/−) stood at 37 nM; in experiment [1], 14 nM.
As for `CNC(=O)c1ccc(N2CCN(Cc3cnc4cc(C5CC5)c(=O)[nH]c4c3)[C@H]3C[C@H]32)cn1` (single isomer, unassigned) [Example 110], the EC50 was found to be 5.7 nM in the experiment on DLD-1 BRCA2(−/−) and 3.3 nM in experiment [1].
As for `CCc1cc2ncc(CN3CCN(c4ccc(C(=O)NC5CC5)nc4)[C@@H]4C[C@@H]43)cc2[nH]c1=O` (single isomer, unassigned) [Example 111], the half-maximal effective concentration (EC50) in the experiment on DLD-1 BRCA2(−/−) came to 4.6 nM; in experiment [1] it was 1.8 nM.
With `O=C(NC1CC1)c1ccc(N2CCN(Cc3cnc4cc(C5CC5)c(=O)[nH]c4c3)[C@H]3C[C@H]32)cn1` (single isomer, unassigned) [Example 112], the EC50 with DLD-1 BRCA2(−/−) worked out at 7.8 nM; in experiment [1] it was 3.3 nM.
As for `CNC(=O)c1ncc(N2CCN(Cc3cnc4cc(C5CC5)c(=O)[nH]c4c3)[C@H]3C[C@H]32)cc1F` (single isomer, unassigned) [Example 113], the EC50 with DLD-1 BRCA2(−/−) worked out at 45 nM; in experiment [1], 20 nM.
For `CCc1cc2ncc(CN3CCN(c4ccc(C(=O)NC)c(=O)n4C)[C@@H]4C[C@@H]43)cc2[nH]c1=O` (single isomer, unassigned) [Example 114], the results for the concentration for a half-maximal effect (EC50) (in the experiment on DLD-1 BRCA2(−/−); in experiment [1]) were 11 nM and 5.1 nM, respectively.
With `CNC(=O)c1ccc(N2CCN([C@@H](C)c3cnc4cc(C)c(=O)[nH]c4c3)C[C@H]2C)cn1` (single isomer, unassigned) [Example 121], the EC50 with DLD-1 BRCA2(−/−) was 43 nM; in experiment [1], 35 nM.
The corresponding values for `CNC(=O)c1ccc(N2CCN([C@H](C)c3cnc4cc(C)c(=O)[nH]c4c3)C[C@H]2C)cn1` (single isomer, unassigned) [Example 122] are 46 nM and 11 nM.
In the case of `CNC(=O)c1ccc(N2CCN([C@@H](C)c3cnc4cc(C)c(=O)[nH]c4c3)CC2)cn1` (single isomer, unassigned) [Example 124], the EC50 is 7.5 nM in the experiment with DLD-1 BRCA2(−/−) and 17 nM in experiment [1].
For `CNC(=O)c1ccc(N2CCN([C@H](C)c3cnc4cc(C)c(=O)[nH]c4c3)CC2)cn1` (single isomer, unassigned) [Example 125], the EC50 came out at 8.5 nM in the experiment on DLD-1 BRCA2(−/−) and 13 nM in experiment [1].
On to `Cc1cc2ncc([C@H](C)N3CCN(c4ccc(C(=O)NC5CC5)nc4)CC3)cc2[nH]c1=O` (single isomer, unassigned) [Example 126], for which the EC50 is 14 nM in the experiment with DLD-1 BRCA2(−/−) and 4.3 nM in experiment [1].
With `Cc1cc2ncc([C@@H](C)N3CCN(c4ccc(C(=O)NC5CC5)nc4)CC3)cc2[nH]c1=O` (single isomer, unassigned) [Example 127], the EC50 with DLD-1 BRCA2(−/−) came out at 15 nM; in experiment [1], 7.3 nM.
Consider `CNC(=O)c1ccc(N2CCN(Cc3cnc4cc([C@@H]5CC5(F)F)c(=O)[nH]c4c3)CC2)cn1` (single isomer, unassigned) [Example 143], for which the EC50 in the experiment with DLD-1 BRCA2(−/−) was 13 nM; in experiment [1], 12 nM.
As to `CNC(=O)c1ccc(N2CCN(Cc3ccc4c5c(c(=O)[nH]c4c3)CCO5)CC2)cn1` [Example 18, N-methyl-5-[4-({4-oxo-2H,3H,5H-furo[3,2-c]quinolin-7-yl}methyl)piperazin-1-yl]pyridine-2-carboxamide], the concentration giving a half-maximal response (EC50) in the experiment on DLD-1 BRCA2(−/−) turned out to be 5.1 nM; in experiment [1], 2.3 nM.
The corresponding values for `CCc1cc2ncc(CN3CCN(c4ccc(-c5ncc[nH]5)nc4)CC3)cc2[nH]c1=O` [Example 19, 3-ethyl-7-({4-[6-(1H-imidazol-2-yl)pyridin-3-yl]piperazin-1-yl}methyl)-1H-1,5-naphthyridin-2-one] are 3.7 nM and 1.8 nM.
The corresponding values for `CCc1cc2ncc(CN3CCN4c5ccc(C(=O)NC)nc5OC[C@@H]4C3)cc2[nH]c1=O` [Example 22B, (10S)-12-[(7-ethyl-6-oxo-5H-1,5-naphthyridin-3-yl)methyl]-N-methyl-8-oxa-1,6,12-triazatricyclo[8.4.0.0^{2,7}]tetradeca-2,4,6-triene-5-carboxamide] are 490 nM and 160 nM.

The values are drawn from patent publication US11591331B2, “PARP1 inhibitors and uses thereof” (Xinthera, Inc., priority 2021, dated 2023).
